Assay results reported in patent US7244740B2, “Imidazo-pyridine derivatives for use in the treatment of herpes viral infection” (SmithKline Beecham Corporation, priority 2001, dated 2007).

Tested on: HSV-1
Assay: HSV-1 replication in Vero 76 cells, DNA hybridization capture assay
Assay type: cell-based, herpes simplex virus 1
Conditions: Human alphaherpesvirus 1; HSV-1 infected Vero 76 cells, MOI=0.001, 40–48 hours incubation, viral DNA detected by hybridization/chemiluminescence
Experimental: Vero 76 cells were maintained in MEM with Earle's salts, L-glutamine, 8% FBS (Hyclone, A-1111-L) and 100 units/mL Penicillin-100 μg/mL Streptomycin. For assay conditions, FBS was reduced to 2%. Cells are seeded into 96-well tissue culture plates at a density of 5×10^4 cells/well after being incubated for 45 min at 37° C. in the presence of HSV-1 or HSV-2 (MOI=0.001). Test compounds are added to the wells and the plates are incubated at 37° C. for 40–48 hours. Cell lysates are prepared as follows: media was removed and replaced with 150 μL/well 0.2 N NaOH with 1% Igepal CA 630 or NP-40. Plates were incubated up to 14 days at room temperature in a humidified chamber to prevent evaporation.
For the detection probe, a gel-purified, digoxigenin-labeled, 710-bp PCR fragment of the HSV UL-15 sequence was utilized. PCR conditions included 0.5 μM primers, 180 μM dTTP, 20 μM dUTP-digoxigenin (Boehringer Mannheim 1558706), 200 μM each of dATP, dCTP, and dGTP, 1×PCR Buffer II (Perkin Elmer), 2.5 mM MgCl2, 0.025 units/μL of AmpliTaq Gold polymerase (Perkin Elmer), and 5 ng of gel-purified HSV DNA per 100 μL Extension conditions were 10 min at 95° C., followed by 30 cycles of 95° C. for 1 min, 55° C. for 30 sec, and 72° C. for 2 min. The amplification was completed with a 10-min incubation at 72° C. Primers were selected to amplify a 728 bp probe spanning a section of the HSV1 UL15 open reading frame (nucleotides 249–977). Single-stranded transcripts were purified with Promega M13 Wizard kits. The final product was mixed 1:1 with a mixture of 6 M GuSCN, 100 mM EDTA and 200 μg/mL herring sperm DNA and stored at 4° C.
The capture DNA plasmid (HSV UL13 region in pUC) was linearized by cutting with Xba I, denatured for 15 min at 95° C. and diluted immediately into Reacti-Bind DNA Coating Solution (Pierce, 17250, diluted 1:1 with TE buffer, pH 8) at 1 ng/μL 75 μL/well were added to Corning (#3922 or 9690) white 96-well plates and incubated at room temperature for at least 4 hrs before washing twice with 300 μL/well 0.2×SSC/0.05% Tween-20 (SSC/T buffer). The plates were then incubated overnight at room temperature with 150 μL/well 0.2 N NaOH, 1% IGEPAL and 10 μg/mL herring sperm DNA.
Twenty-seven (27) μL of cell lysate was combined with […] of hybridization solution (final concentration: 3M GuSCN, 50 mM EDTA, 100 μg/ml salmon sperm DNA, 5× Denhardt's solution, 0.25×APE, and 5 ng of the digoxigenin-labeled detection probe). APE is 1.5 M NH4-acetate, 0.15 M ammonium phosphate monobasic, and 5 mM EDTA adjusted to pH 6.0. Mineral oil (50 μL) was added to prevent evaporation. The hybridization plates were incubated at 95° C. for 10 minutes to denature the DNA, then incubated at 42° C. overnight. The wells were washed 6× with 300 μL/well SSC/T buffer then incubated with […] anti-digoxigenin-HRP-conjugated antibody (Boehringer Mannheim 1207733, 1:5000 in TE) for 30 min at room temperature. The wells were washed 6× with 300 μL/well with PBS/0.05% Tween-20 before 75 μL/well SuperSignal LBA substrate (Pierce) was added. The plates were incubated at room temperature for 30 minutes and chemiluminescence was measured in a Wallac Victor reader.

| SMILES | IC50 |
| --- | --- |
| COc1cccc(-c2nc3c(Cl)cccn3c2-c2ccnc(Nc3ccccc3)n2)c1 [Example 1, 4-[8-Chloro-2-(3-methoxyphenyl)imidazo[1,2-α]pyridin-3-yl]-N-phenylpyrimidin-2-amine] | 1.46 µM |
| Cc1ccc(-c2nc3c(Cl)cccn3c2-c2ccnc(Nc3ccccc3)n2)cc1 [Example 3, 4-[8-Chloro-2-(4-methylphenyl)imidazo[1,2-α]pyridin-3-yl]-N-phenylpyrimidin-2-amine] | 3.52 µM |
| O=[N+]([O-])c1cccc(-c2nc3c(Cl)cccn3c2-c2ccnc(Nc3ccc(F)cc3)n2)c1 [Example 5, 4-[8-Chloro-2-(3-nitrophenyl)imidazo[1,2-α]pyridin-3-yl]-N-(4-fluorophenyl)pyrimidin-2-amine] | 2.23 µM |

Continued by falling IC50, values first:

| IC50 | SMILES |
| --- | --- |
| 3.54 µM | Cc1ccc(-c2nc3c(NC4CCCC4)cccn3c2-c2ccnc(Nc3ccccc3)n2)cc1 [Example 4, 3-(2-Anilino-4-pyrimidinyl)-N-cyclopentyl-2-(4-methylphenyl)imidazo[1,2-α]pyridin-8-amine] |
| 0.35 µM | COc1cccc(-c2nc3c(NC4CCCC4)cccn3c2-c2ccnc(NC3CCCC3)n2)c1 [Example 2, N-Cyclopentyl-3-[2-(cyclopentylamino)-4-pyrimidinyl]-2-(3-methoxyphenyl)imidazo[1,2-α]pyridin-8-amine] |
